Experimental data reported in US11053219B2, “Substituted pyridines as TYK2 inhibitors” (FronThera U.S. Pharmaceuticals LLC, priority 2018, dated 2021).
Read-outs that look alike come from different tables or passages of the source.

How the values were obtained:
[1] = tested on: IL12-induced p-STAT4 in human PBMC; assay: IL-12 induced pSTAT4 in human PBMC; type: cell-based; settings: read-out: p-STAT4 IC50
TYK2 (JH2 domain) = TYK2 (JH2 domain) (Homo sapiens (Human), UniProt P29597); assay: TYK2 JH2 domain binding assay (DiscoverX KINOMEscan); settings: 11-point 3-fold dilution, duplicate
[2] = tested on: INFα induced pSTAT5 in human PBMC; assay: INFα induced pSTAT5 in human PBMC; type: cell-based; settings: read-out: p-STAT5 IC50

Chain of TYK2 (JH2 domain) (P29597 589-875): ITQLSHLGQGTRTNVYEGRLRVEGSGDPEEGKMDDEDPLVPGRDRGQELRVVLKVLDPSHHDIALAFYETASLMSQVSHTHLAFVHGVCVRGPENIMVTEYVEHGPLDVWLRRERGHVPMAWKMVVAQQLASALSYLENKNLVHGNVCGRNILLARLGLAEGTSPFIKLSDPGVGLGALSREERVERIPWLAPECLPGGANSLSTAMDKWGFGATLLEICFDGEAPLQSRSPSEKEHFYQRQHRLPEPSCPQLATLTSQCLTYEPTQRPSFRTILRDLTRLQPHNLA

| Compound | IC50 ([2]; human PBMC, INFα 5000 units/ml) | further results |
| --- | --- | --- |
| [2H]C([2H])([2H])NC(=O)c1nnc(N2CCN(C(C([2H])([2H])[2H])C([2H])([2H])[2H])C2=O)cc1Nc1cccc(-c2ncn(C)n2)c1OC [Example 103] | – | IC50 ([1]; human PBMC, IL-12 10 ng/ml): < 100 nM; Kd (TYK2 (JH2 domain)): ≤ 1 nM |
| COc1c(Nc2cc(Nc3cc(C)c(F)cn3)ncc2C(=O)C2CC2)cccc1-c1ncn(C)n1 [Example 145] | < 100 nM | Kd (TYK2 (JH2 domain)): ≤ 1 nM |
| [2H]C([2H])([2H])NC(=O)c1nnc(NC(=O)N2CCC2)cc1Nc1cccc(-c2ncn(C)n2)c1OC [Example 28] | < 100 nM | Kd (TYK2 (JH2 domain)): ≤ 1 nM |
| [2H]C([2H])([2H])Oc1c(Nc2cc(NC(=O)C3CC3)ncc2C(=O)C2CC2)cccc1-c1ncn(C)n1 [Example 34] | – | IC50 ([1]; Homo sapiens, PBMC): < 100 nM |
| COc1c(Nc2cc(Nc3cc(F)ccn3)ncc2C(=O)C2CC2)cccc1-c1ncn(C)n1 [Example 108] | < 100 nM | Kd (TYK2 (JH2 domain)): ≤ 1 nM |
| COc1c(Nc2cc(Nc3ccc(OC4CCOC4)cn3)ncc2C(=O)C2CC2)cccc1-c1ncn(C)n1 (centres unmarked) [Example 124] | < 100 nM | – |
| [2H]C([2H])([2H])NC(=O)c1nnc(NC(=O)N2CC(F)(C#N)C2)cc1Nc1cccc(-c2ncn(C)n2)c1OC [Example 151] | < 100 nM | – |
| [2H]C([2H])([2H])NC(=O)c1nnc(NC(=O)N2CC(C#N)C2)cc1Nc1cccc(-c2ncn(C)n2)c1OC [Example 144] | < 100 nM | – |
| [2H]C([2H])([2H])CC(=O)c1cnc(Nc2ccc(C(C)(C)O)c(F)n2)cc1Nc1nccc(-c2ncn(C)n2)c1OC [Example 185] | < 100 nM | – |
| COc1c(-c2ncn(C)n2)ccnc1Nc1cc(Nc2ccccn2)ncc1C(=O)C1CC1 [Example 141] | < 100 nM | – |
| COc1c(Nc2cc(Nc3cc(C)ccn3)ncc2C(=O)C2CC2)cccc1-c1ncn(C)n1 [Example 107] | < 100 nM | – |
| CC(C)(O)c1ccc(Nc2cc(Nc3ncccc3S(C)(=O)=O)c(C(=O)C3CC3)cn2)nc1 [Example 126] | < 100 nM | Kd (TYK2 (JH2 domain)): ≤ 1 nM |
| COc1c(-c2ncn(C)n2)ccnc1Nc1cc(Nc2ccc(C)nn2)ncc1C(=O)C1CC1 [Example 155] | < 100 nM | – |
| COc1c(Nc2cc(N[S+]([O-])C(C)(C)C)ncc2C(=O)C2CC2)cccc1-c1ncn(C)n1 (centres unmarked) [Example 128] | – | IC50 ([2]; Homo sapiens, PBMC): 1000 to 10000 nM |
| COc1c(Nc2cc(Nc3cccc(C)n3)ncc2C(=O)C2CC2)cccc1-c1ncn(C)n1 [Example 112] | < 100 nM | – |
| COc1c(Nc2cc(Nc3cc(C)nc(C)n3)ncc2C(=O)C2CC2)cccc1-c1ncn(C)n1 [Example 111] | < 100 nM | – |
| COc1c(Nc2cc(NC(=O)[C@@H]3C[C@@H]3F)ncc2C(=O)C2CC2)cccc1-c1ncn(C)n1 [Example 161] | < 100 nM | – |
| COc1c(Nc2cc(NC(=O)N3CC(C)(C)C3)ncc2C(=O)C2CC2)cccc1-c1ncn(C)n1 [Example 133] | < 100 nM | – |
| CS(=O)(=O)c1cccnc1Nc1cc(Nc2ccccn2)ncc1C(=O)C1CC1 [Example 137] | < 100 nM | – |
| [2H]C([2H])([2H])CC(=O)c1cnc(NC(=O)C2CC2)cc1Nc1cccc(-c2ncn(C)n2)c1OC [Example 171] | < 100 nM | – |
| CNC(=O)c1nnc(NC(=O)N2CC(C)C2)cc1Nc1cccc(-c2ncn(C)n2)c1OC [Example 129] | < 100 nM | – |
| [2H]C([2H])([2H])CC(=O)c1cnc(Nc2ccc(C)nn2)cc1Nc1ncccc1S(C)(=O)=O [Example 190] | < 100 nM | – |
| COc1c(Nc2cc(Nc3ccc(C(C)(C)O)cn3)ncc2C(=O)C2CC2)cccc1-c1ncn(C)n1 [Example 122] | < 100 nM | – |
| COc1c(-c2ncn(C)n2)ccnc1Nc1cc(Nc2ccc(C(C)(C)O)c(F)n2)ncc1C(=O)C1CC1 [Example 131] | < 100 nM | – |
| [2H]C1([2H])CN(C(=O)Nc2cc(Nc3cccc(-c4ncn(C)n4)c3OC)c(C(=O)NC([2H])([2H])[2H])nn2)C1 [Example 31] | – | IC50 ([1]; human PBMC, IL-12 10 ng/ml): < 100 nM |
| COc1c(Nc2cc(Nc3ncccc3F)ncc2C(=O)C2CC2)cccc1-c1ncn(C)n1 [Example 119] | < 100 nM | – |
| CCC(=O)c1cnc(NC(=O)C2CC2)cc1Nc1cccc(-c2ncn(C)n2)c1OC [Example 116] | < 100 nM | – |
